Values after ≈ are worked out from the molar mass of the structure shown.
Key:
[1] = tested on: Enterobacteriaceae; assay: Antibacterial activity against Enterobacteriaceae by broth microdilution method; assay type: functional
[2] = tested on: Enterobacteriaceae; assay: Antibacterial activity against extended spectrum beta-lactamase-producing Enterobacteriaceae clinical isolates by broth microdilution method; assay type: functional
[3] = tested on: Enterobacteriaceae; assay: Antibacterial activity against ciprofloxacin-resistant Enterobacteriaceae clinical isolates by broth microdilution method; assay type: functional
[4] = tested on: Klebsiella pneumoniae; assay: Antibacterial activity against […] Klebsiella pneumoniae by broth microdilution method; assay type: functional
[5] = tested on: Enterobacteriaceae; assay: Antibacterial activity against Enterobacteriaceae clinical isolates isolated from patient with urinary tract infection assessed as cure rate at test-of-cure visit; assay type: functional, Urine
[6] = tested on: Enterobacteriaceae; assay: Antibacterial activity against extended spectrum beta-lactamase-producing Enterobacteriaceae clinical isolates isolated from patient with urinary tract infection assessed as cure rate at test-of-cure visit; assay type: functional, Urine
[7] = tested on: Enterobacteriaceae; assay: Antibacterial activity against ciprofloxacin-resistant Enterobacteriaceae clinical isolates isolated from patient with urinary tract infection assessed as cure rate at test-of-cure visit; assay type: functional, Urine
[8] = tested on: Enterobacteriaceae; assay: Antibacterial activity against Enterobacteriaceae clinical isolates isolated from patient with complicated urinary tract infection assessed as cure rate at test-of-cure visit; assay type: functional, Urine
[9] = tested on: Enterobacteriaceae; assay: Antibacterial activity against extended spectrum beta-lactamase-producing Enterobacteriaceae clinical isolates isolated from patient with complicated urinary tract infection assessed as cure rate at test-of-cure visit; assay type: functional, Urine
[10] = tested on: Enterobacteriaceae; assay: Antibacterial activity against Enterobacteriaceae clinical isolates isolated from patient with complicated intra-abdominal infection assessed as cure rate at test-of-cure visit; assay type: functional
[11] = tested on: Enterobacteriaceae; assay: Antibacterial activity against extended spectrum beta-lactamase-producing Enterobacteriaceae clinical isolates isolated from patient with complicated intra-abdominal infection assessed as cure rate at test-of-cure visit; assay type: functional
[12] = tested on: Enterobacteriaceae; assay: Antibacterial activity against ciprofloxacin-resistant Enterobacteriaceae clinical isolates isolated from patient with complicated intra-abdominal infection assessed as cure rate at test-of-cure visit; assay type: functional
[13] = tested on: Enterobacteriaceae; assay: Antibacterial activity against Enterobacteriaceae clinical isolates isolated from patient with nosocomial pneumonia assessed as cure rate at test-of-cure visit; assay type: functional
[14] = tested on: Enterobacteriaceae; assay: Antibacterial activity against extended spectrum beta-lactamase-producing Enterobacteriaceae clinical isolates isolated from patient with nosocomial pneumonia assessed as cure rate at test-of-cure visit; assay type: functional
[15] = tested on: Enterobacteriaceae; assay: Antibacterial activity against ciprofloxacin-resistant Enterobacteriaceae clinical isolates isolated from patient with nosocomial pneumonia assessed as cure rate at test-of-cure visit; assay type: functional
[16] = tested on: Enterobacteriaceae; assay: Antibacterial activity against Enterobacteriaceae clinical isolates isolated from patient with urinary tract infection assessed as cure rate at test-of-cure visit by mMITT analysis; assay type: functional, Urine
[17] = tested on: Enterobacteriaceae; assay: Antibacterial activity against extended spectrum beta-lactamase-producing Enterobacteriaceae clinical isolates isolated from patient with urinary tract infection assessed as cure rate at test-of-cure visit by mMITT analysis; assay type: functional, Urine
[18] = tested on: Enterobacteriaceae; assay: Antibacterial activity against ciprofloxacin-resistant Enterobacteriaceae clinical isolates isolated from patient with urinary tract infection assessed as cure rate at test-of-cure visit by mMITT analysis; assay type: functional, Urine
[19] = tested on: Enterobacteriaceae; assay: Antibacterial activity against Enterobacteriaceae clinical isolates isolated from patient with complicated urinary tract infection assessed as cure rate at test-of-cure visit by mMITT analysis; assay type: functional, Urine
[20] = tested on: Enterobacteriaceae; assay: Antibacterial activity against extended spectrum beta-lactamase-producing Enterobacteriaceae clinical isolates isolated from patient with complicated urinary tract infection assessed as cure rate at test-of-cure visit by mMITT analysis; assay type: functional, Urine
[21] = tested on: Enterobacteriaceae; assay: Antibacterial activity against ciprofloxacin-resistant Enterobacteriaceae clinical isolates isolated from patient with complicated urinary tract infection assessed as cure rate at test-of-cure visit by mMITT analysis; assay type: functional, Urine
[22] = tested on: Enterobacteriaceae; assay: Antibacterial activity against Enterobacteriaceae clinical isolates isolated from patient with complicated intra-abdominal infection assessed as cure rate at test-of-cure visit by mMITT analysis; assay type: functional
[23] = tested on: Enterobacteriaceae; assay: Antibacterial activity against extended spectrum beta-lactamase-producing Enterobacteriaceae clinical isolates isolated from patient with complicated intra-abdominal infection assessed as cure rate at test-of-cure visit by mMITT analysis; assay type: functional
[24] = tested on: Enterobacteriaceae; assay: Antibacterial activity against ciprofloxacin-resistant Enterobacteriaceae clinical isolates isolated from patient with complicated intra-abdominal infection assessed as cure rate at test-of-cure visit by mMITT analysis; assay type: functional
[25] = tested on: Enterobacteriaceae; assay: Antibacterial activity against Enterobacteriaceae clinical isolates isolated from patient with nosocomial pneumonia assessed as cure rate at test-of-cure visit by mMITT analysis; assay type: functional
[26] = tested on: Enterobacteriaceae; assay: Antibacterial activity against extended spectrum beta-lactamase-producing Enterobacteriaceae clinical isolates isolated from patient with nosocomial pneumonia assessed as cure rate at test-of-cure visit by mMITT analysis; assay type: functional
[27] = tested on: Enterobacteriaceae; assay: Antibacterial activity against ciprofloxacin-resistant Enterobacteriaceae clinical isolates isolated from patient with nosocomial pneumonia assessed as cure rate at test-of-cure visit by mMITT analysis; assay type: functional
[28] = tested on: Enterobacteriaceae; assay: Antibacterial activity against ciprofloxacin-resistant Enterobacteriaceae clinical isolates isolated from patient with complicated urinary tract infection assessed as cure rate at test-of-cure visit; assay type: functional, Urine

## NCC[C@H](O)C(=O)N[C@@H]1C[C@H](N)[C@@H](O[C@H]2O[C@H](CN)[C@@H](O)[C@H](O)[C@H]2O)[C@H](O)[C@H]1O[C@H]1O[C@H](CO)[C@@H](O)[C@H](N)[C@H]1O [AMIKACIN]
[1]
  MIC50: 2 µg/mL (≈ 3.42 µM)
  MIC90: 8 µg/mL (≈ 13.7 µM)
[2]
  MIC50: 8 µg/mL (≈ 13.7 µM)
  MIC90: > 64 µg/mL
[3]
  MIC50: 4 µg/mL (≈ 6.83 µM)

## CC(C)(O/N=C(\C(=O)N[C@@H]1C(=O)N2C(C(=O)[O-])=C(C[n+]3ccccc3)CS[C@H]12)c1csc(N)n1)C(=O)O [CEFTAZIDIME]
[1]
  MIC50: 0.12 µg/mL (≈ 0.22 µM)
  MIC90: 0.5 µg/mL (≈ 0.915 µM)
[2]
  MIC50: 32 µg/mL (≈ 58.5 µM)
  MIC90: > 32 µg/mL
[3]
  MIC50: 1 µg/mL (≈ 1.83 µM)
  MIC90: > 32 µg/mL

## C[C@@H](O)[C@H]1C(=O)N2C(C(=O)O)=C(S[C@@H]3CN[C@H](CNS(N)(=O)=O)C3)[C@H](C)[C@H]12 [DORIPENEM]
[4]
  MIC50: ≤ 0.03 µg/mL
  MIC90: 0.12 µg/mL (≈ 0.285 µM)
[2]
  MIC50: 0.06 µg/mL (≈ 0.143 µM)
  MIC90: 0.25 µg/mL (≈ 0.595 µM)
[3]
  MIC50: 0.03 µg/mL (≈ 0.0713 µM)
  MIC90: 0.5 µg/mL (≈ 1.19 µM)
[5]
  Activity: 82.3%
[6]
  Activity: 72.7%
[7]
  Activity: 68.1%
[8]
  Activity: 83.5%
[9]
  Activity: 60%
[10]
  Activity: 84.4%
[11]
  Activity: 71.4%
[12]
  Activity: 82.4%
[13]
  Activity: 69.1%
[14]
  Activity: 75%
[15]
  Activity: 70%
[16]
  Activity: 73.6%
[17]
  Activity: 66.7%
[18]
  Activity: 61.9%
[19]
  Activity: 74.3%
[20]
  Activity: 50%
[21]
  Activity: 53.3%
[22]
  Activity: 77.3%
[23]
  Activity: 75%
[24]
  Activity: 83.3%
[25]
  Activity: 59.6%
[26]
  Activity: 64.3%

## C[C@@H](O)[C@H]1C(=O)N2C(C(=O)O)=C(S[C@@H]3CN[C@H](C(=O)Nc4cccc(C(=O)O)c4)C3)[C@H](C)[C@H]12 [ERTAPENEM]
[4]
  MIC50: ≤ 0.03 µg/mL
  MIC90: ≤ 0.03 µg/mL
[2]
  MIC50: 0.12 µg/mL (≈ 0.252 µM)
  MIC90: 1 µg/mL (≈ 2.1 µM)
[3]
  MIC50: ≤ 0.03 µg/mL
  MIC90: 4 µg/mL (≈ 8.41 µM)

## C[C@@H](O)[C@H]1C(=O)N2C(C(=O)O)=C(SCCNC=N)C[C@H]12 [IMIPENEM ANHYDROUS]
[4]
  MIC50: 0.12 µg/mL (≈ 0.401 µM)
  MIC90: 1 µg/mL (≈ 3.34 µM)
[2]
  MIC50: 0.12 µg/mL (≈ 0.401 µM)
  MIC90: 0.5 µg/mL (≈ 1.67 µM)
[3]
  MIC50: 0.12 µg/mL (≈ 0.401 µM)
  MIC90: 1 µg/mL (≈ 3.34 µM)
[13]
  Activity: 64.4%
[14]
  Activity: 100%
[25]
  Activity: 61.4%
[26]
  Activity: 100%
[27]
  Activity: 83.3%

## C[C@H]1COc2c(N3CCN(C)CC3)c(F)cc3c(=O)c(C(=O)O)cn1c23.C[C@H]1COc2c(N3CCN(C)CC3)c(F)cc3c(=O)c(C(=O)O)cn1c23.O [LEVOFLOXACIN]
[1]
  MIC50: ≤ 0.03 µg/mL
  MIC90: 8 µg/mL
[2]
  MIC50: 8 µg/mL
  MIC90: 32 µg/mL
[3]
  MIC50: 16 µg/mL
  MIC90: 64 µg/mL
[8]
  Activity: 85.4%
[9]
  Activity: 20%
[28]
  Activity: 21.9%
[19]
  Activity: 75.2%
[20]
  Activity: 14.3%
[21]
  Activity: 23.8%

## C[C@@H](O)[C@H]1C(=O)N2C(C(=O)O)=C(S[C@@H]3CN[C@H](C(=O)N(C)C)C3)[C@H](C)[C@H]12 [MEROPENEM]
[4]
  MIC50: ≤ 0.03 µg/mL
  MIC90: 0.06 µg/mL (≈ 0.156 µM)
[2]
  MIC50: ≤ 0.03 µg/mL
  MIC90: 0.12 µg/mL (≈ 0.313 µM)
[3]
  MIC50: 0.03 µg/mL (≈ 0.0782 µM)
  MIC90: 0.25 µg/mL (≈ 0.652 µM)
[10]
  Activity: 85%
[11]
  Activity: 100%
[12]
  Activity: 91.7%
[22]
  Activity: 77.9%
[23]
  Activity: 62.5%
[24]
  Activity: 81.3%

— ChEMBL document CHEMBL1255458, “Worldwide experience with the use of doripenem against extended-spectrum-beta-lactamase-producing and ciprofloxacin-resistant Enterobacteriaceae: analysis of six phase 3 clinical studies” (2010)
